In BindingDB's records for PubMed 38252989 (IK Gujral Punjab Technical University) one finds IC50 data, which are given here for four compounds.

The target of this experiment is T1, Alpha-amylase 1A (Homo sapiens, UniProt P0DUB6).
T1 sequence (P0DUB6 whole entry): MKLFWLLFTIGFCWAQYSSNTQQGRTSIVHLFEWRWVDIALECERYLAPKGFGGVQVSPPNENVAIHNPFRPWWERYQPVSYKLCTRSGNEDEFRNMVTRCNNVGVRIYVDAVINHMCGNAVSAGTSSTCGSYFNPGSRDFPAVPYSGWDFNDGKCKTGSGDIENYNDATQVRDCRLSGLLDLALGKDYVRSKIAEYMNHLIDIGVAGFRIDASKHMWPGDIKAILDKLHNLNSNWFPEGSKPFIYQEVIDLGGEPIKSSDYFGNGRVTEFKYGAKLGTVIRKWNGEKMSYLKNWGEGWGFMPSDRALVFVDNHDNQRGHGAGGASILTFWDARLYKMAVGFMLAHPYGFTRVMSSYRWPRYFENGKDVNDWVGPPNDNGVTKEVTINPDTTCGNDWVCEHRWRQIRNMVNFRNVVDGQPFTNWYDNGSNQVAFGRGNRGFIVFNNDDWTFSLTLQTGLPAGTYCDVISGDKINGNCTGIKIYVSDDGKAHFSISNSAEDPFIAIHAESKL
The experiment can be described thus: Inhibition of Alpha-amylase (unknown origin).

Each structure is given as a SMILES string.

The IC50 is the concentration that inhibits the measured activity by half. High values mean weaker potency, low ones greater potency. `N#Cc1ccccc1-c1ccc(N2C(=O)SC(=Cc3ccccc3Oc3ccccc3)C2=O)cc1` came in with an IC50 of 0.13 nM.

In turn, `O=C(O)CN1C(=O)SC(=Cc2ccc3c(c2)OCO3)C1=O` had a half-inhibitory concentration (IC50) of 10 nM.

Turning to `O=C(O)CN1C(=O)SC(=Cc2cn(-c3ccccc3)nc2-c2ccc([N+](=O)[O-])cc2)C1=O`, the IC50 turned out to be 4.1 nM.

`C=CCN1C(=O)SC(=Cc2ccc(Cl)cc2Cl)C1=O` had an IC50 of 44 nM.
